{"source": "patent US6486147B2", "about": "“Cosmetic composition containing a steroid and a 2-alkylalkanol or an ester thereof” (L'Oreal, priority 2000, dated 2002)", "assay": "Solubility of DHEA in various conventional solubilizing agents", "format": "physicochemical", "conditions": "for Solubility after one month (AT): ambient temperature", "method": "The solubility of DHEA in various conventional solubilizing agents is mentioned in Table 2 below by way of comparison (the percentage of DHEA is calculated with respect to the total weight of DHEA and of solvent; AT refers to ambient temperature): […]", "key": {"[1]": {"conditions": "solvent Benzoate of C12-15 alcohols, 3% DHEA"}, "[2]": {"conditions": "solvent Propylene glycol, 5-10% DHEA"}, "[3]": {"conditions": "solvent Propylene glycol, 15-20% DHEA"}}, "data": [{"compound": "C[C@]12CC[C@H](O)CC1=CC[C@@H]1[C@@H]2CC[C@]2(C)C(=O)CC[C@@H]12", "note": "[DHEA, dehydroepiandrosterone]", "values": [{"measurement": "Solubility", "setting": "[1]", "result": "Soluble at 50 °C"}, {"measurement": "Solubility after one month (AT)", "setting": "[1]", "result": "Crystals"}, {"measurement": "Solubility", "setting": "solvent Dodecanol, 10% DHEA", "result": "Insoluble even at"}, {"measurement": "Solubility after one month (AT)", "setting": "solvent Dodecanol, 10% DHEA", "result": "Crystals"}, {"measurement": "Solubility", "setting": "solvent Phenoxyethanol, 20% DHEA (of total weight of DHEA and solvent)", "result": "Soluble at AT"}, {"measurement": "Solubility after one month (AT)", "setting": "solvent Phenoxyethanol, 20% DHEA", "result": "Crystals"}, {"measurement": "Solubility", "setting": "[2]", "result": "Soluble at 50 °C"}, {"measurement": "Solubility after one month (AT)", "setting": "[2]", "result": "Crystals"}, {"measurement": "Solubility", "setting": "[3]", "result": "Insoluble at AT"}, {"measurement": "Solubility after one month (AT)", "setting": "[3]", "result": "Crystals"}]}]}
